From US12502388B2, “Lanthionine synthetase C-like 2-based therapeutics” (NImmune Biopharma, Inc., priority 2014, dated 2025)
Entries after “also recorded” stand apart in the source; their conditions may differ.

What was measured:
LANCL2 = target: T1, LANCL2 (Homo sapiens, UniProt Q9NS86); test: Surface plasmon resonance (BIACORE T200) binding to immobilized LANCL2; details: for Kd: unit inferred, read-out: SPR KD value
T1 sequence (Q9NS86 1-450): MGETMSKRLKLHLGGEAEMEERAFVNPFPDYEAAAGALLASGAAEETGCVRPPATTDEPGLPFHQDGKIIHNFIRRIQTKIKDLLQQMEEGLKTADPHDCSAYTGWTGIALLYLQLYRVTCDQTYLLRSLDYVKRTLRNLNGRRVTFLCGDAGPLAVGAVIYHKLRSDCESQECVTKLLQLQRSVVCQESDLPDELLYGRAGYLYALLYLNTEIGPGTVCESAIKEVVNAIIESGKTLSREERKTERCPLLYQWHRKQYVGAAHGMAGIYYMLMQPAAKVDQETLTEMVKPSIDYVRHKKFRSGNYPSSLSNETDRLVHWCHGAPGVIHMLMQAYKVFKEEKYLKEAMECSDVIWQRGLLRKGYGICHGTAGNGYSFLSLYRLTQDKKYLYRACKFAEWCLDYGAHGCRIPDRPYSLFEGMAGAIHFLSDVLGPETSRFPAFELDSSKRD
Text: Kinetic determination of LANCL2-small molecule interaction. […] Data were generated in a dose dependent (5-8 titration points) manner in triplicate, and analyzed to determine binding model (Langmuir, conformational shift, etc.), real time associated and disassociation constants, and equilibrium dissociation constant. SPR technology allowed validation of specific LANCL2-phytochemical interactions as well as to gain gold-standard insight into mechanism and rate of binding. The experiments were performed on carboxymethyldextran (CM5) sensor chips by covalently attaching LANCL2 to by amine coupling. Flow cells 1 and 2 of the sensor chip were activated for 720 sec at 10 μl/min with of 1:1 mixture of 0.1 M N-hydroxysuccinimide (NHS) and 0.5 M 1-ethyl-3-(−3-dimethylaminopropyl)-carbodiimide hydrochloride (EDC). Stock LANCL2 (0.41 mg/mL) was diluted to 8.2 μg/mL (1:50 dilution) in 10 mM sodium acetate, pH 5.0 and injected over the activated flow cell 2 surface for 1000 sec at a flow rate of 10 μl/min. After the capture of LANCL2 on flow cell 2 (11000 RU), surfaces of flow cells 1 and 2 were deactivated by injecting 1M ethanolamine for 720 sec at 10 μl/min. The running buffer was 25 mM MOPS containing 0.05% T-20 and 0.15 M NaCl, pH 6.5. […] Each sample was injected for 60 sec (contact time) followed by a dissociation time of 60 sec at a flow rate of 100 μL/min. A stabilization time of 180 sec was used before the next injection. Data was analyzed with BIACORE™ T200 Evaluation Software (version 1) to determine the affinity binding constant (KD) using a 1:1 binding model.
We immobilized purified recombinant LANCL2 protein on BIACORE™ sensor chips and injected small molecules over the protein surface using the microfluidic system of the instrument. Changes in the total mass on chip surface were measured, which corresponds to the small binding to the protein. […] These fast interactions are beyond the technical abilities of the instrument. Therefore, reliable association rate constant (ka) and dissociation rate constant (kd) were not determined. The equilibrium dissociation constant (KD) is commonly used to describe the affinity between a ligand and a protein, such as how tightly a ligand binds to a particular protein. Ligand-protein affinities are influenced by non-covalent intermolecular interactions between the two molecules such as hydrogen bonding, electrostatic interactions, hydrophobic and Van der Waals forces. By plotting the equilibrium binding level against the compound concentration, we were able to measure the steady state affinity (KD) for each interaction (FIG. 8, panels B and D).
In this case we also immobilized purified recombinant LANCL2 protein on BIACORE™ sensor chips and injected small molecules over the protein surface using the microfluidic system of the instrument. Changes in the total mass on chip surface were measured, which corresponds to the small binding to the protein. […] This longer binding can potentially impact the activation of the LANCL2 pathway by triggering more efficacious anti-inflammatory and anti-diabetic and other therapeutic responses.

[1] = system: C57BL/6 mice fed a high-fat diet
[2] = system: RAG2-/- mice transferred with naive CD4+ T cells
[3] = system: IL-10-/- mice with chronic colitis
[4] = system: mice infected with influenza virus
Procedure: Intranasal infection of mice with influenza virus. Mice were anesthetized with 2-5% isofluorane using a vaporizer station, and 50 μL of virus dilution at 10^3 TCID50 was administered through the nostrils (25 μL each one). Mice were then placed in their cages and watched for recovery of anesthesia.
This procedure caused no pain or distress.
Monitoring of mice and disease activity and weighing. Mice were monitored once daily after the infection (or every 4 hours if they developed severe clinical signs of disease equivalent to disease score 2) and were euthanized prior to the planned endpoint if they developed significant signs of illness as measured by weight loss (i.e., 25% gradual loss of initial body weight), dehydration, loss of mobility, guarding/protection of painful area, ruffled fur (piloerection). Mice were weighed once a day for the duration of the experiment.

[5] = system: C57BL/6J mice with DSS colitis
Procedure: Mice. […] All mice were maintained in animal facilities.
DSS-induced colitis. Colitis was induced in C57BL/6J mice by administration of 5% (w/v) dextran sodium sulfate (DSS; molecular weight 42 kDa; ICN Biochemicals, Aurora, OH) added to the drinking water. Colonic inflammation was assessed 7 days after DSS treatment. […] DSS-treated, vehicle-treated mice, and iv. […] Twelve mice were included in each group.
Quantitative Real-Time PCR. […] Primers were designed using Oligo 6 software.

[6] = gene expression vs untreated mice
[7] = CD4+ T cells from LANCL2-/- donors
[8] = gene expression, dose-dependent
[9] = flow cytometry, wild-type vs LANCL2-/-

Text for NOD mice: Mice. […] The mice were maintained in animal facilities.
(§1) Assessment of body weight and glucose tolerance.
Text for db/db mice: Mice and dietary treatments. […] The mice were maintained in animal facilities.
as §1

## O=C(c1cccc(-c2nc3ccccc3[nH]2)n1)N1CCN(C(=O)c2cccc(-c3nc4ccccc4o3)n2)CC1 [BT-15]
LANCL2
  binding to LANCL2 by SPR in words: strongly bind
  on and off rates in SPR sensorgrams: very fast on rates and very fast off rates
  Kd: 11.4 µM

## O=C(Nc1ccc(NC(=O)c2cccc(-c3nc4ccccc4[nH]3)c2)cc1)c1cccc(-c2nc3ccccc3[nH]2)c1 [BT-6]
LANCL2
  binding to LANCL2 by SPR in words: strongly bind
  on and off rates in SPR sensorgrams: very fast to bind but not as fast as off

## O=C1CC=C(/C=C/c2ccc(C(=O)O)o2)CC1 [BT-ABA-5a]
LANCL2
  binding to LANCL2 by SPR in words: strongly bind
  on and off rates in SPR sensorgrams: very fast to bind but not as fast as off; also recorded: slowest off rate

## O=C(c1cccc(-c2nc3ccccc3[nH]2)n1)N1CCN(C(=O)c2cccc(-c3nc4ccccc4[nH]3)n2)CC1 [BT-11]
[1]; 2 g/Kg glucose IP after 12 h fasting
  normalization of blood glucose after IP glucose challenge: significantly faster
[1]; flow cytometry
  F4/80+ CD11b+ pro-inflammatory macrophages in white adipose tissue: significantly reduced
  pro-inflammatory granulocytes (GR1+Ly6chigh) in white adipose tissue: significantly reduced
[1]; [6]
  expression of LANCL2 in WAT: higher expression levels
  mRNA level of MCP-1 in WAT: significantly lower mRNA levels
  mRNA level of TNFα in WAT: significantly lower mRNA levels
[1]; week 12 of high-fat feeding, vs vehicle
  fasting blood glucose: significantly decreased
LANCL2
  binding to LANCL2 by SPR in words: strongly bind
  on and off rates in SPR sensorgrams: very fast on rates and very fast off rates
  Kd: 6.3 µM
[2]; 80 mg/Kg
  effects on disease activity and histopathology with PPARγ-/- donor CD4+ T cells: PPARγ independent
[2]; 80 mg/Kg, 11 weeks
  macroscopic scores in spleen, MLNs, colon and ileum: greatly and significantly reduced
[2]; [7]
  decrease in leukocytic infiltration, epithelial erosion and mucosal thickening in LANCL2-/- transferred recipients: greatly abrogated
  effect on disease activity index with LANCL2-/- donor cells: completely abrogated with the loss of LANCL2
[2]; LANCL2-/- cells transferred, 80 mg/Kg
  macroscopic scores with loss of LANCL2: the loss of LANCL2 completely abrogated the effect of BT-11
[2]; flow cytometry
  IFNγ levels in total CD45+ leukocytes in the colon: decrease
  IL-10 in CD4+ T cells in the colonic mucosa: promoting the expression
  expression of IFNγ in the CD45+ population in MLN and spleen: decreased
  levels of FOXP3 and IL-10 in spleen and MLN: increases
  regulatory CD4+ T cells (FOXP3) in the colonic mucosa: upregulated
[2]; flow cytometry, 11 weeks of treatment
  infiltrating F4/80+ CD11b+ pro-inflammatory macrophages in the colon: significantly lower level
[2]; from 7 weeks until end, vs vehicle
  weight loss: significantly improved
[2]; histopathology
  epithelial erosion in the colon: significantly lower
  inflammation: leukocytic infiltration and mucosal thickening in colon and ileum: significantly reduced inflammation
[2]; wild-type CD4+ T cells transferred, BT-11 vs vehicle
  disease activity index score: significantly reduced
[3]; 80 mg/Kg, from week 13 to end
  disease activity index scores, highest dose vs lower doses: significantly reduced the scores in comparison to those treated with either 20 or 40 mg/Kg
[3]; 19 weeks, concentrations as low as 20 mg/Kg
  macroscopic scores in spleen, MLNs and colon: greatly and significantly reduced
[3]; 20, 40 and 80 mg/Kg vs vehicle
  disease activity index scores: significantly decreased
[3]; H&E colon sections
  colonic histopathology (leukocytic infiltration, epithelial erosion, mucosal thickening): significantly reduced inflammation
[3]; flow cytometry
  FOXP3-expressing CD4+ T cells in MLN and spleen: upregulation
  FOXP3-expressing CD4+ T cells in the colonic LP: upregulation
  effector Th17 cells (RORγt) in the MLN: downregulated
  percentage of F4/80+ macrophages in colonic lamina propria: significantly decreased
  percentage of MHC-II+ CD11c+ dendritic cells in colonic lamina propria: significantly decreased
  percentage of effector Th1 cells in colonic lamina propria: significantly decreased
[3]; flow cytometry, dose response
  Th1 cells in the spleen: downregulation
[3]; [8]
  colonic expression of LANCL2: upregulates
  colonic expression of TNFα: downregulates
[4]; 80 mg/Kg, from day 6 post-infection, vs vehicle
  morbidity (mice losing over 15% of body weight): less morbidity
[4]; 40 and 80 mg/Kg
  clinical score for physical appearance: significantly reduced
[4]; from day 3, oral 80 or 40 mg/Kg daily
  activity clinical score: significantly reduced
db/db mice; 0 to 265 minutes after IP glucose
  glucose levels following glucose challenge: fell toward normal levels more rapidly
db/db mice; 80 mg/Kg daily oral gavage, weeks 1 and 3
  fasting blood glucose: significantly decreased
db/db mice; 12-h fast
  glucose prior to the IP glucose challenge (time 0): significantly decreases
NOD mice; 12 h fasting, weeks 0-11, 80 mg/kg/d vs vehicle
  fasting blood glucose: significantly lower levels
NOD mice; vs vehicle
  clinical histopathological lesions in the pancreas: significantly reduces
NOD mice; week 5
  insulin levels in plasma: significantly increased levels
[5]; 5% DSS, 7-day challenge, oral BT-11 vs vehicle
  disease activity score: significantly improved
[5]; 10 to 80 mg/Kg
  leukocytic infiltration, mucosal thickening and epithelial erosion, dose-response: decreased in mice with colitis as the dose of BT-11 was increased
[5]; LANCL2-/- mice, vehicle or BT-11
  histopathological lesions of the colonic mucosa in LANCL2-/- mice: the loss of LANCL2 completely abrogates the effect of BT-11
[5]; LANCL2 knockout mice
  upregulation of IL-10 secretion in colon and spleen: completely abrogated in LANCL2 knockout mice
[5]; colonic histopathology
  decrease of inflammation in the gut mucosa (leukocytic infiltration, epithelial erosion, mucosal thickening): 5 times
[5]; day 7 post-challenge
  macroscopic lesions in spleen, MLNs and colon: significantly decreased
[5]; dose-response study
  colonic IL-10 expression by flow cytometry: follows dose-response dynamics
[5]; dose-response study, flow cytometry
  FOXP3 expression in the MLN: dose-dependent
[5]; flow cytometry, colon, wild-type vs LANCL2-/-
  upregulation of MHC-II+ CD11c+ granulocytes: LANCL2-dependent
[5]; flow cytometry, doses 10, 20, 40, 80 mg/Kg
  reduction of colonic TNFα expressing cells: significantly different at both 40 and 80 mg/Kg of BT-11, but not on lower doses
[5]; [9]
  reduction of MCP1 in colon and MLN: LANCL2-dependent
  secretion of TNFα in the colon: LANCL2-dependent
[5]; mouse, in vivo
  colonic gene expression of IL-10: upregulated
  colonic gene expression of LANCL2: upregulated
  colonic gene expression of TNFα: down-regulated
[5]; wild-type vs LANCL2-/- littermates
  macroscopic score in colon, MLN and spleen in LANCL2-/- mice: the loss of LANCL2 abrogated the decrease in macroscopic score
[5]; wild-type vs LANCL2-/- mice
  recovery from colitis (disease activity index) in LANCL2-/- mice: the loss of LANCL2 prevented the mice to recover
